Laboratory results reported in PubChem BioAssay AID2060609 (Molecular Pharmacology Branch, DTP, NCI, 2025).
One block for each compound: values may come before it.

System: 855422-203-R-J1-PDC complex spheroids, viability
Experiment: Anticancer human tumor 855422-203-R-J1-PDC patient-derived bladder carcinoma cell line growth inhibition [CLK]
Details: for IC50: curve of first compound; for viability, T/C: stronger effect = lower value
How it was run: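 Patient-derived tumor cells grown as complex spheroids with HUVEC endothelial cells and mesenchymal stem cells, treated with drug combinations. Concentrations descend in half-log steps from near clinical Cmax, or from 10 microM if Cmax unknown.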

[1] = second compound 0.0316 µM, first compound 0.0316 µM
[2] = second compound 0.0316 µM, first compound 0.1 µM
[3] = second compound 0.0316 µM, first compound 0.316 µM
[4] = second compound 0.0316 µM, first compound 1 µM
[5] = second compound 0.0316 µM, first compound 3.16 µM
[6] = second compound 0.0316 µM, first compound 10 µM
[7] = second compound 0.1 µM, first compound 0.0316 µM
[8] = second compound 0.1 µM, first compound 0.1 µM
[9] = second compound 0.1 µM, first compound 0.316 µM
[10] = second compound 0.1 µM, first compound 1 µM
[11] = second compound 0.1 µM, first compound 3.16 µM
[12] = second compound 0.1 µM, first compound 10 µM
[13] = second compound 0.316 µM, first compound 0.0316 µM
[14] = second compound 0.316 µM, first compound 0.1 µM
[15] = second compound 0.316 µM, first compound 0.316 µM
[16] = second compound 0.316 µM, first compound 1 µM
[17] = second compound 0.316 µM, first compound 3.16 µM
[18] = second compound 0.316 µM, first compound 10 µM
[19] = second compound 1 µM, first compound 0.0316 µM
[20] = second compound 1 µM, first compound 0.1 µM
[21] = second compound 1 µM, first compound 0.316 µM
[22] = second compound 1 µM, first compound 1 µM
[23] = second compound 1 µM, first compound 3.16 µM
[24] = second compound 1 µM, first compound 10 µM
[25] = second compound 3.16 µM, first compound 0.0316 µM
[26] = second compound 3.16 µM, first compound 0.1 µM
[27] = second compound 3.16 µM, first compound 0.316 µM
[28] = second compound 3.16 µM, first compound 1 µM
[29] = second compound 3.16 µM, first compound 3.16 µM
[30] = second compound 3.16 µM, first compound 10 µM
[31] = second compound 10 µM, first compound 0.0316 µM
[32] = second compound 10 µM, first compound 0.1 µM
[33] = second compound 10 µM, first compound 0.316 µM
[34] = second compound 10 µM, first compound 1 µM
[35] = second compound 10 µM, first compound 3.16 µM
[36] = second compound 10 µM, first compound 10 µM
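Also: spheroids exposed to drugs for seven days before readout.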
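For viability, T/C in this document: 100% = DMSO vehicle control wells.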

IC50 (second compound 0.0316 µM): > 10000 nM | IC50 (second compound 0.1 µM): 392 nM | IC50 (second compound 0.316 µM): < 31.6 nM | IC50 (second compound 1 µM): < 31.6 nM | IC50 (second compound 3.16 µM): < 31.6 nM | IC50 (second compound 10 µM): < 31.6 nM
Structure (SMILES): C#Cc1c(F)ccc2cc(O)cc(-c3ncc4c(N5CC6CCC(C5)N6)nc(OCC56CCCN5CC(F)C6)nc4c3F)c12 (centres undefined) + CNC(=O)c1ccc(Nc2nc(OC3CCCC3)c3c(-c4ccc5nc(C)oc5c4)c[nH]c3n2)c(OC)c1
viability, T/C [1]: 95.4% | viability, T/C [2]: 111% | viability, T/C [3]: 100% | viability, T/C [4]: 87.2% | viability, T/C [5]: 132% | viability, T/C [6]: 84.9% | viability, T/C [7]: 60.2% | viability, T/C [8]: 51.1% | viability, T/C [9]: 56.7% | viability, T/C [10]: 39.6% | viability, T/C [11]: 32.7% | viability, T/C [12]: 22% | viability, T/C [13]: 21.2% | viability, T/C [14]: 24.9% | viability, T/C [15]: 24.8% | viability, T/C [16]: 22.9% | viability, T/C [17]: 24.3% | viability, T/C [18]: 21.8% | viability, T/C [19]: 19.8% | viability, T/C [20]: 21.5% | viability, T/C [21]: 19.5% | viability, T/C [22]: 22.1% | viability, T/C [23]: 23.2% | viability, T/C [24]: 19.3% | viability, T/C [25]: 20.6% | viability, T/C [26]: 18.1% | viability, T/C [27]: 17.3% | viability, T/C [28]: 22% | viability, T/C [29]: 25.4% | viability, T/C [30]: 13.3% | viability, T/C [31]: 21.8% | viability, T/C [32]: 22.4% | viability, T/C [33]: 24.1% | viability, T/C [34]: 18.9% | viability, T/C [35]: 17.3% | viability, T/C [36]: 14.8%

IC50 (second compound 0.0316 µM): 2500 nM | IC50 (second compound 0.1 µM): < 31.6 nM | IC50 (second compound 0.316 µM): < 31.6 nM | IC50 (second compound 1 µM): < 31.6 nM | IC50 (second compound 3.16 µM): < 31.6 nM | IC50 (second compound 10 µM): < 31.6 nM
Structure (SMILES): C=C(F)C(=O)N1CCN(c2nc(OCC3CCCN3C)nc3c2CCN(c2cccc4cccc(Cl)c24)C3)CC1CC#N (centres undefined) + CNC(=O)c1ccc(Nc2nc(OC3CCCC3)c3c(-c4ccc5nc(C)oc5c4)c[nH]c3n2)c(OC)c1
viability, T/C [1]: 83.1% | viability, T/C [2]: 88.6% | viability, T/C [3]: 81.8% | viability, T/C [4]: 132% | viability, T/C [5]: 38.1% | viability, T/C [6]: 0.16% | viability, T/C [7]: 24.2% | viability, T/C [8]: 21% | viability, T/C [9]: 23.7% | viability, T/C [10]: 27.5% | viability, T/C [11]: 10.2% | viability, T/C [12]: 0.11% | viability, T/C [13]: 16.6% | viability, T/C [14]: 19.6% | viability, T/C [15]: 19.9% | viability, T/C [16]: 18.7% | viability, T/C [17]: 10.1% | viability, T/C [18]: 0.07% | viability, T/C [19]: 21.5% | viability, T/C [20]: 15.8% | viability, T/C [21]: 19.4% | viability, T/C [22]: 18.6% | viability, T/C [23]: 8.14% | viability, T/C [24]: 0.07% | viability, T/C [25]: 18.5% | viability, T/C [26]: 14.9% | viability, T/C [27]: 14.8% | viability, T/C [28]: 20.5% | viability, T/C [29]: 9.57% | viability, T/C [30]: 1.06% | viability, T/C [31]: 18.1% | viability, T/C [32]: 21.6% | viability, T/C [33]: 21% | viability, T/C [34]: 16.9% | viability, T/C [35]: 7.87% | viability, T/C [36]: 8.64%
